Consider one compound from patent US12128111B2, “Glyco-metal-organic frameworks-based hepatic targeted therapeutic drug and preparation method thereof” (Jiangnan University, priority 2019, dated 2024).

In data set [1] the test system is Huh7 cells. Nature of the data set: Calcein-AM/PI live and dead staining, in vitro therapeutic effect. The class given is cell-based, human. The following applies: 10 μg/mL DOX, 60 μg/mL PCN-224, 70 μg/mL DOX@PCN-224 or DOX@Gal-PCN-224. The method, then:
(§1) The in vitro therapeutic effect of the inorganic nanomaterial DOX@Gal-PCN-224 was detected by the live and death staining method and the corresponding MTT experiment.
(§2) Human hepatoma cells Huh7 were inoculated in a laser confocal culture dish (35 mm) at the density of 8×10^4 per well. After culturing for 24 hours, the cells were incubated with a medium containing 10 μg/mL DOX, 60 μg/mL PCN-224, 70 μg/mL DOX@PCN-224 (with the drug loading ratio of 14.2, and the DOX content of about 10 μg/mL) or 70 μg/mL DOX@Gal-PCN-224 (with the drug loading ratio of 14.2, and the DOX content of about 10 μg/mL) respectively for 24 hours. Then the light group was irradiated with a 660 nm light source for 10 min. After incubating for 24 hours, Calcein-AM/PI live and dead co-staining was performed. Finally, the cells were observed under the confocal laser. After the same treatment, the therapeutic effect of each group was further quantified by the MTT experiment.

Data set [2] concerns Huh7 cells. Kind of data set: MTT in vitro therapeutic effect. The class given is cell-based, human. Conditions: 10 μg/mL DOX, 60 μg/mL PCN-224, 70 μg/mL DOX@PCN-224 or DOX@Gal-PCN-224. The method, then:
as §1, §2

Another data set deals with subcutaneous solid tumor. Nature of the data set: Inhibition of tumor growth in subcutaneous solid tumor mouse models. Conditions: no laser; tail vein, DOX 2 mg/kg, PCN-224 12 mg/kg, DOX@PCN-224 and DOX@Gal-PCN-224 14 mg/kg; last day (day 21) versus saline. The format is in vivo, BALB/c nude mice. The method, then:
To construct subcutaneous solid tumor mouse models, male BALB/c nude mice with the average weight of 14-17 g at the age of 4 weeks were inoculated with 0.1 ml of 6×10^6 cells/ml PBS at the right gluteus. After four weeks, when the tumor size exceeded 200 mm^3 (volume=0.52×tumor length×tumor width^2), the mice were divided into 2 groups with 5 mice in each group. The DOX@PCN-224-RhB (0.1 mL 0.4 mg/mL) and DOX@Gal-PCN-224-RhB (0.1 mL 0.4 mg/ml) were injected into the tail vein respectively. The fluorescence signal of RhB was detected by a small animal imager (Bruker In Vivo Xtreme II) at set time points (3, 6, 12, 24, 48 hours). Then the mice were sacrificed, the heart, liver, spleen, lung and kidney were isolated, and the RhB fluorescence signal of each organ was detected.
When the subcutaneous tumor size of the mice exceeded 50 mm^3, the mice were randomly divided into 9 groups with 5 mice in each group: (1) saline, (2) free DOX saline (2 mg/kg), (3) free DOX+660 nm laser (2 mg/kg), (4) PCN-224 (12 mg/kg), (5) PCN-224+660 nm laser (12 mg/kg), (6) DOX@PCN-224 (14 mg/kg), (7) DOX@PCN-224+660 nm laser (14 mg/kg), (8) DOX@Gal-PCN-224 (14 mg/kg), and (9) DOX@Gal-PCN-224+660 nm laser (14 mg/kg). […] At the specified time points (days 3, 6, 9, 12, 15, 18, and 21), the tumor volume and mouse body weight of the experimental groups were measured. […]

`COc1cccc2c1C(=O)c1c(O)c3c(c(O)c1C2=O)C[C@@](O)(C(=O)CO)C[C@@H]3O[C@H]1C[C@H](N)[C@H](O)[C@H](C)O1` [DOX, doxorubicin]: the “live and dead staining (red fluorescence = dead cells, apoptosis)” value in the data set with Huh7 cells [1] (Huh7, 660 nm light 10 min) is listed as “only sporadic red fluorescence”; in the data set with Huh7 cells [1] (Huh7, no light) it was “only sporadic red fluorescence”. Also, the Cell viability came to 79% with Huh7 cells [2] (Huh7, + 660 nm laser 10 min) and 82% with Huh7 cells [2] (Huh7, no laser). In addition, the Tumor inhibition efficiency with subcutaneous solid tumor was determined as 49.8%.
